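Step 1: Grow cells in 96-well plates. Step 2: Expose to compound for 48 hours at 5 concentrations. Step 3: Interpolate endpoints linearly; if unreached, use highest concentration. TGI denotes the concentration required for complete inhibition of growth.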 Bounds are passed on as bounds.

Results on nine compounds are retold here after PubChem BioAssay (NCI).

Among the test systems are TK-10 renal; SF-268 CNS; MALME-3M melanoma; KM12 colon; HL-60(TB) leukemia; SF-539 CNS; OVCAR-8 ovarian; COLO 205 colon; ACHN renal; A498 renal; MOLT-4 leukemia; UO-31 renal; EKVX NSCLC; CCRF-CEM leukemia; IGROV1 ovarian; SK-MEL-5 melanoma; HCC-2998 colon; MDA-MB-231 breast; HS 578T breast.
Holding throughout (experiment): DTP human tumour cell line panel, 48 h

For the compound `Cc1cc(C)c(NS(=O)c2cccc(Cl)c2)c(C)c1` (centres undefined), the TGI with TK-10 renal, in the test with SF-268 CNS, in the test with MALME-3M melanoma, with KM12 colon, in the test with HL-60(TB) leukemia and with SF-539 CNS was greater than 100 µM each time. For the same compound, the TGI in the test with OVCAR-8 ovarian, in the test with COLO 205 colon, in the test on ACHN renal, in the test on A498 renal, in the test on MOLT-4 leukemia and in the test with UO-31 renal was greater than 100 µM throughout. In addition, the TGI in the test on EKVX NSCLC and in the test on CCRF-CEM leukemia was greater than 100 µM in each case.
For `COC1=CC(=O)[C@]2(C)[C@H](C1=O)C(C)[C@H]2c1ccccc1` (some centres undefined), the TGI in the test with TK-10 renal, in the test on SF-268 CNS, in the test with MALME-3M melanoma, in the test with KM12 colon, in the test with IGROV1 ovarian and in the test with HL-60(TB) leukemia was greater than 100 µM each time. Besides, the TGI with SF-539 CNS, in the test with OVCAR-8 ovarian, with COLO 205 colon, in the test with ACHN renal, in the test on A498 renal and in the test with MOLT-4 leukemia was greater than 100 µM each time. In addition, the TGI in the test on UO-31 renal, with EKVX NSCLC, in the test on SK-MEL-5 melanoma, with HCC-2998 colon and with CCRF-CEM leukemia was greater than 100 µM in each case.
In the case of `O=C(CN1CCOCC1)Nc1ccc2c(c1)C1Oc3ccccc3CC1CO2` (centres undefined), the TGI in the test with TK-10 renal, in the test on MDA-MB-231 breast, in the test with SF-268 CNS, with MALME-3M melanoma, with KM12 colon and in the test on IGROV1 ovarian was greater than 100 µM in each case. In addition, the TGI with SF-539 CNS, with OVCAR-8 ovarian, with COLO 205 colon, with ACHN renal, in the test with A498 renal and in the test with MOLT-4 leukemia was greater than 100 µM in each case. For the same compound, the TGI in the test on UO-31 renal, in the test on EKVX NSCLC, in the test with SK-MEL-5 melanoma, in the test with HCC-2998 colon and with CCRF-CEM leukemia was greater than 100 µM each time.
Turning to `CC(C)(C)[Si](C)(C)OCC#C[C@@]1(O)CCCCC1CC(Sc1ccccc1)Sc1ccccc1` (some centres undefined), the TGI (as a rule, the concentration at which net growth stops) with TK-10 renal stood at 31.8 µM; in the test on MDA-MB-231 breast, 34.7 µM; in the test on MALME-3M melanoma it was 32.3 µM; in the test on KM12 colon, 63.8 µM; in the test on IGROV1 ovarian, 33.3 µM; in the test on HL-60(TB) leukemia it was 41.9 µM. Further, the TGI with OVCAR-8 ovarian stood at 35.1 µM; in the test with COLO 205 colon, 31.6 µM; in the test on ACHN renal it was 27.4 µM; in the test with A498 renal, 30.4 µM; with MOLT-4 leukemia, 51 µM; in the test on UO-31 renal it was 26.9 µM. Besides, the TGI in the test on EKVX NSCLC is 30 µM; in the test with SK-MEL-5 melanoma it was 29.2 µM; with HCC-2998 colon, 30.7 µM; in the test on CCRF-CEM leukemia, 39.5 µM.
As for `O=C(CC(C(=O)c1cccs1)c1ccsc1)c1ccco1` (centres undefined), the TGI in the test on HS 578T breast is 47 µM; in the test with TK-10 renal, greater than 100 µM; in the test with SF-268 CNS, 74.2 µM; in the test on KM12 colon, 42.7 µM; in the test with IGROV1 ovarian, greater than 100 µM; in the test on HL-60(TB) leukemia, 41.3 µM. The TGI with SF-539 CNS was 98.2 µM; with OVCAR-8 ovarian, greater than 100 µM; with COLO 205 colon it was 95.5 µM; in the test on ACHN renal, 99.2 µM; in the test on A498 renal it was 64 µM; in the test on MOLT-4 leukemia, greater than 100 µM. In addition, the TGI in the test on UO-31 renal is 59 µM; in the test with EKVX NSCLC, greater than 100 µM; in the test with SK-MEL-5 melanoma it was greater than 100 µM; in the test on HCC-2998 colon it was greater than 100 µM; in the test with CCRF-CEM leukemia, 50.1 µM.
As for `O=S1c2ccccc2SCSc2ccccc21`, the TGI in the test with TK-10 renal, with MDA-MB-231 breast, in the test on SF-268 CNS, with MALME-3M melanoma, in the test with KM12 colon and with SF-539 CNS was greater than 100 µM each time. The TGI with OVCAR-8 ovarian, in the test with COLO 205 colon, in the test with ACHN renal, in the test with A498 renal, with MOLT-4 leukemia and in the test with UO-31 renal was greater than 100 µM throughout. Also, the TGI in the test with SK-MEL-5 melanoma and in the test with HCC-2998 colon was greater than 100 µM in each case.
In the case of `COc1ccc2nc3ccc(OC)cc3c(SCC3CO3)c2c1` (centres undefined), the TGI turned out to be 25.8 µM in the test with TK-10 renal; 28.7 µM in the test with MDA-MB-231 breast; 31.6 µM in the test on SF-268 CNS; 30.5 µM with MALME-3M melanoma; 34.4 µM in the test on KM12 colon; 23.7 µM with SF-539 CNS. The TGI was 25.7 µM in the test with OVCAR-8 ovarian; 41.8 µM in the test on COLO 205 colon; 21.7 µM in the test on ACHN renal; greater than 100 µM with A498 renal; 24.8 µM with UO-31 renal; 34.2 µM in the test on EKVX NSCLC. Also, the TGI in the test with SK-MEL-5 melanoma was 33.5 µM; with HCC-2998 colon, 29.7 µM; with CCRF-CEM leukemia it was greater than 100 µM.
For the compound `C/C(=N\NC(=S)NNC(=S)N(C)c1ccccc1)c1ccccn1`, the TGI in the test on HS 578T breast was greater than 100 µM; with TK-10 renal it was greater than 100 µM; in the test on MDA-MB-231 breast, greater than 100 µM; in the test on SF-268 CNS, greater than 89 µM; with MALME-3M melanoma, 20.3 µM; in the test with KM12 colon, greater than 100 µM. The TGI in the test with SF-539 CNS is 11.1 µM; in the test with OVCAR-8 ovarian, greater than 100 µM; in the test with COLO 205 colon, greater than 100 µM; in the test with ACHN renal, greater than 53.6 µM; in the test on UO-31 renal, 7.59 µM; with EKVX NSCLC it was 10.7 µM. For the same compound, the TGI with HCC-2998 colon is greater than 100 µM.
As to `O=C1c2ccccc2-c2c1c(-c1ccccc1)c1n2C2(C(=O)c3ccccc3C2=O)C2C(=O)N(c3ccccc3)C(=O)C12` (centres undefined), the TGI was 63.7 µM in the test with HS 578T breast; greater than 100 µM in the test on TK-10 renal; 65.6 µM in the test on SF-268 CNS; 51.9 µM in the test with MALME-3M melanoma; 47.9 µM in the test with KM12 colon; greater than 100 µM with IGROV1 ovarian. Further, the TGI in the test on SF-539 CNS is 37.5 µM; with OVCAR-8 ovarian, greater than 100 µM; in the test with COLO 205 colon, 50.7 µM; in the test on ACHN renal, greater than 100 µM; with A498 renal, greater than 100 µM; in the test on MOLT-4 leukemia, greater than 100 µM. Moreover, the TGI in the test with UO-31 renal was 79.3 µM; with EKVX NSCLC, greater than 100 µM; in the test on SK-MEL-5 melanoma it was 35.3 µM; in the test on CCRF-CEM leukemia, 60 µM.
